Experimental data from patent US20240109903A1, “SUBSTITUTED HETEROCYCLES FOR TREATING CANCER” (Northwestern University, priority 2022, published 2024).

Assays:
SN12C = assay: NCI 60 five-dose screen SN12C; format: cell-based; details: Homo sapiens, five-dose
CAKI-1 = assay: NCI 60 five-dose screen CAKI-1; format: cell-based; details: Homo sapiens, five-dose
LOX IMVI = assay: NCI 60 five-dose screen LOX IMVI; format: cell-based; details: Homo sapiens, five-dose
SR = assay: NCI 60 five-dose screen SR; format: cell-based, human; details: five-dose
SK-MEL-2 = assay: NCI 60 five-dose screen SK-MEL-2; format: cell-based; details: Homo sapiens, five-dose
KM12 = assay: NCI 60 five-dose screen KM12; format: cell-based; details: Homo sapiens, five-dose
A549/ATCC = assay: NCI 60 five-dose screen A549/ATCC; format: cell-based; details: Homo sapiens, five-dose
MOLT-4 = assay: NCI 60 five-dose screen MOLT-4; format: cell-based; details: Homo sapiens, five-dose
HCT-15 = assay: NCI 60 five-dose screen HCT-15; format: cell-based; details: Homo sapiens, five-dose
MCF7 = assay: NCI 60 five-dose screen MCF7; format: cell-based; details: Homo sapiens, five-dose
SF-539 = assay: NCI 60 five-dose screen SF-539; format: cell-based; details: Homo sapiens, five-dose
HL-60(TB) = assay: NCI 60 five-dose screen HL-60(TB); format: cell-based; details: Homo sapiens, five-dose
HCC-2998 = assay: NCI 60 five-dose screen HCC-2998; format: cell-based; details: Homo sapiens, five-dose
786-0 = assay: NCI 60 five-dose screen 786-0; format: cell-based; details: Homo sapiens, five-dose
IGROV1 = assay: NCI 60 five-dose screen IGROV1; format: cell-based; details: Homo sapiens, IGROV-1, five-dose
TK-10 = assay: NCI 60 five-dose screen TK-10; format: cell-based; details: Homo sapiens, five-dose
MALME-3M = assay: NCI 60 five-dose screen MALME-3M; format: cell-based; details: Homo sapiens, MALME-3M, five-dose
K-562 = assay: NCI 60 five-dose screen K-562; format: cell-based; details: Homo sapiens, K562, five-dose
MDA-MB-231/ATCC = assay: NCI 60 five-dose screen MDA-MB-231/ATCC; format: cell-based; details: Homo sapiens, five-dose
OVCAR-8 = assay: NCI 60 five-dose screen OVCAR-8; format: cell-based; details: Homo sapiens, five-dose
SF-268 = assay: NCI 60 five-dose screen SF-268; format: cell-based; details: Homo sapiens, five-dose
NCI-H322M = assay: NCI 60 five-dose screen NCI-H322M; format: cell-based; details: Homo sapiens, five-dose
SNB-19 = assay: NCI 60 five-dose screen SNB-19; format: cell-based; details: Homo sapiens, five-dose
SF-295 = assay: NCI 60 five-dose screen SF-295; format: cell-based; details: Homo sapiens, five-dose
HOP-92 = assay: NCI 60 five-dose screen HOP-92; format: cell-based; details: Homo sapiens, five-dose
COLO 205 = assay: NCI 60 five-dose screen COLO 205; format: cell-based; details: Homo sapiens, five-dose
HT29 = assay: NCI 60 five-dose screen HT29; format: cell-based; details: Homo sapiens, HT-29, five-dose
RXF 393 = assay: NCI 60 five-dose screen RXF 393; format: cell-based; details: Homo sapiens, five-dose
[1] = read-out: LC50 (the source's name) (converted)
[2] = read-out: LC50 (the source's name)

What does the source list for `FC(F)(F)c1cc2c(Cl)ncnc2n1CCC1CCOCC1` [NUCC-0226674]?
GI50 (SN12C): 6.61 µM; IC50 (SN12C): 12.6 µM; IC (TGI) (SN12C): 20 µM; CC50 (SN12C; [1]): 46.8 µM; GI50 (CAKI-1): 14.5 µM; IC50 (CAKI-1): 26.9 µM; IC (TGI) (CAKI-1): 30.2 µM; CC50 (CAKI-1; [1]): 63.1 µM; GI50 (LOX IMVI): 1.62 µM; IC50 (LOX IMVI): 2.88 µM; IC (TGI) (LOX IMVI): 3.02 µM; CC50 (LOX IMVI; [1]): 5.5 µM; GI50 (SR; Homo sapiens): 2.04 µM; IC50 (SR; Homo sapiens): 3.72 µM; CC50 (SR; Homo sapiens, read-out: LC50 (the source's name)): ≥ 100 µM; TGI (SR): 5.27 −log[M]; GI50 (SK-MEL-2): 13.2 µM; IC50 (SK-MEL-2): 29.5 µM; IC (TGI) (SK-MEL-2): 28.2 µM; CC50 (SK-MEL-2; [1]): 60.3 µM; GI50 (KM12): 16.2 µM; IC50 (KM12): 28.2 µM; IC (TGI) (KM12): 33.9 µM; CC50 (KM12; [1]): 70.8 µM; GI50 (A549/ATCC): 21.9 µM; IC50 (A549/ATCC): 34.7 µM; IC (TGI) (A549/ATCC): 56.2 µM; CC50 (A549/ATCC; [1]): ≥ 100 µM; GI50 (MOLT-4): 2.34 µM; IC50 (MOLT-4): 4.27 µM; IC (TGI) (MOLT-4): 5.5 µM; CC50 (MOLT-4; [2]): ≥ 100 µM; GI50 (HCT-15): 2.95 µM; IC50 (HCT-15): 3.8 µM; IC (TGI) (HCT-15): 11 µM; CC50 (HCT-15; [1]): 41.7 µM; GI50 (MCF7): 11.5 µM; IC50 (MCF7): 19.1 µM; IC (TGI) (MCF7): 36.3 µM; CC50 (MCF7; [1]): ≥ 100 µM; GI50 (SF-539): 13.8 µM; IC50 (SF-539): 24.5 µM; IC (TGI) (SF-539): 27.5 µM; CC50 (SF-539; [1]): 56.2 µM; GI50 (HL-60(TB)): 2.24 µM; IC50 (HL-60(TB)): 4.17 µM; IC (TGI) (HL-60(TB)): 5.01 µM; CC50 (HL-60(TB); [1]): 44.7 µM; GI50 (HCC-2998): 1.62 µM; IC50 (HCC-2998): 2.95 µM; IC (TGI) (HCC-2998): 3.02 µM; CC50 (HCC-2998; [1]): 5.62 µM; GI50 (786-0): 16.2 µM; IC50 (786-0): 28.2 µM; IC (TGI) (786-0): 32.4 µM; CC50 (786-0; [1]): 64.6 µM; GI50 (IGROV1): 1.78 µM; IC50 (IGROV1): 3.16 µM; IC (TGI) (IGROV1): 3.47 µM; CC50 (IGROV1; [1]): 6.76 µM; GI50 (TK-10): 17.4 µM; IC50 (TK-10): 36.3 µM; IC (TGI) (TK-10): 36.3 µM; CC50 (TK-10; [1]): 77.6 µM; GI50 (MALME-3M): 15.1 µM; IC50 (MALME-3M): 29.5 µM; IC (TGI) (MALME-3M): 29.5 µM; CC50 (MALME-3M; [1]): 56.2 µM; GI50 (K-562): 2.82 µM; IC50 (K-562): 3.63 µM; IC (TGI) (K-562): 8.71 µM; CC50 (K-562; [2]): ≥ 100 µM; GI50 (MDA-MB-231/ATCC): 3.89 µM; IC50 (MDA-MB-231/ATCC): 8.13 µM; IC (TGI) (MDA-MB-231/ATCC): 14.1 µM; CC50 (MDA-MB-231/ATCC; [1]): 43.7 µM; GI50 (OVCAR-8): 2.45 µM; IC50 (OVCAR-8): 3.63 µM; IC (TGI) (OVCAR-8): 7.41 µM; CC50 (OVCAR-8; [1]): 63.1 µM; GI50 (SF-268): 2.45 µM; IC50 (SF-268): 4.57 µM; IC (TGI) (SF-268): 7.24 µM; CC50 (SF-268; [1]): 44.7 µM; GI50 (NCI-H322M): 3.16 µM; IC50 (NCI-H322M): 8.32 µM; IC (TGI) (NCI-H322M): 12.6 µM; CC50 (NCI-H322M; [1]): 35.5 µM; GI50 (SNB-19): 5.25 µM; IC50 (SNB-19): 12.3 µM; IC (TGI) (SNB-19): 18.2 µM; CC50 (SNB-19; [1]): 43.7 µM; GI50 (SF-295): 13.8 µM; IC50 (SF-295): 25.1 µM; IC (TGI) (SF-295): 27.5 µM; CC50 (SF-295; [1]): 56.2 µM; GI50 (HOP-92): 13.8 µM; IC50 (HOP-92): 34.7 µM; IC (TGI) (HOP-92): 32.4 µM; CC50 (HOP-92; [1]): 75.9 µM; GI50 (COLO 205): 16.2 µM; IC50 (COLO 205): 30.2 µM; IC (TGI) (COLO 205): 37.2 µM; CC50 (COLO 205; [1]): 85.1 µM; GI50 (HT29): 13.8 µM; IC50 (HT29): 21.4 µM; IC (TGI) (HT29): 44.7 µM; CC50 (HT29; [1]): ≥ 100 µM; GI50 (RXF 393): 8.71 µM; IC50 (RXF 393): 24 µM; IC (TGI) (RXF 393): 21.9 µM; CC50 (RXF 393; [1]): 51.3 µM
